The source of these data is the OPERA property sets (Mansouri et al. 2018).

Conditions in the first data set: not given
Usually melting point stands for the temperature of the solid-liquid transition. For the compound `CNC(=O)Oc1ccccc1C(C)C`, the log10 vapour pressure (mmHg) is -4.68, the melting point was found to be 94 °C and the ready biodegradability entry is on record as “not readily biodegradable”.

As to `COS(=O)(=O)[O-].C[n+]1c2ccccc2nc2ccccc21`, the melting point is 157 °C. Usually boiling point stands for the temperature at which the vapour pressure of the liquid equals the pressure above it. As for `CC(F)(F)CCl`, the boiling point is 55 °C and the melting point is -56.2 °C. On to `Clc1cc(Cl)c(Cl)c(-c2c(Cl)c(Cl)c(Cl)c(Cl)c2Cl)c1`, for which the log10 Henry constant (atm·m³/mol) was -4.85. In turn, `CCOC(=O)C=C(C)C` returned a boiling point of 154 °C.

`C[C@H]1O[C@H](O[C@H]2CC[C@H](n3ccc(NC(=O)c4ccc(NC(=O)[C@@](C)(N)CO)cc4)nc3=O)O[C@@H]2C)[C@H](O)[C@@H](O)[C@@H]1N(C)C` had a melting point of 167 °C. The compound `FCC(F)(F)OC(F)F` gave a boiling point of 43 °C and a log10 vapour pressure (mmHg) of 2.57. Consider `CCCCCCCCCCCCCCCCN`, for which the boiling point is 322 °C, the log10 vapour pressure (mmHg) was -3.88 and the melting point was 46.8 °C.

For `c1ccc(C(=C(c2ccccc2)c2ccccc2)c2ccccc2)cc1`, the boiling point is 420 °C and the melting point stood at 225 °C. `COc1ccc(COC(=O)Cc2ccccc2)cc1` displayed a boiling point of 370 °C. In the case of `CC[C@H](C)C(=O)O[C@H]1CCC=C2C=C[C@H](C)[C@H](CC[C@@H]3C[C@@H](O)CC(=O)O3)[C@H]21`, the melting point was found to be 152 °C. Take `CC(=O)Oc1ccc(C)c(C)c1`: the boiling point stood at 235 °C and the melting point came to 22 °C. `O=C(O)Cn1c(=O)sc2cccc(Cl)c21`: the log10 Koc (L/kg) is 1.52, the log10 vapour pressure (mmHg) is -9.12 and the melting point stood at 193 °C. In turn, `CC[N+](C)(CC)CCOC(=O)C(O)(c1ccccc1)C1CCCCC1.[Br-]` (stereo not drawn) returned a melting point of 192 °C.

For the compound `NC(=O)N1c2ccccc2CC(=O)c2ccccc21`, the melting point is 216 °C. Same read-out and setting: under `CC(CN1c2ccccc2Sc2ccccc21)N(C)C.Cl` (stereo not drawn) stands 228 °C.

On to `COC(=O)c1ccccc1S(=O)(=O)NC(=O)Nc1nc(C)nc(OC)n1`, for which the log10 Koc (L/kg) was determined as 1.54 and the melting point amounted to 162 °C. In turn, `N#CCc1ccccc1Br` displayed a melting point of 1 °C. As for `COC(C)(C)OC`, the boiling point worked out at 83 °C, the log10 vapour pressure (mmHg) was determined as 2.01 and the melting point was -47 °C. With `S=C(S)N1CCNCC1`, the melting point came to 228 °C. Take `CC(=O)Oc1ccc(OC(C)=O)c(-c2ccccc2)c1`: the melting point turned out to be 68 °C. Regarding `FC1(F)OC1(F)F`, the boiling point is -63.5 °C and the melting point was -118 °C. Consider `CN1C(=O)CN=C(c2ccccc2F)c2cc(Cl)ccc21`, for which the melting point was found to be 296 °C. Compound `O=C(O)c1ccc(I)cc1` showed a melting point of 270 °C.

For the compound `c1ccc(OCCOc2ccccc2)cc1`, the melting point came to 98 °C. For `CCCCC(=O)OCCC`, the boiling point turned out to be 168 °C and the melting point is -70.7 °C. Turning to `O=Cc1ccccc1[N+](=O)[O-]`, the log10 vapour pressure (mmHg) is -1.75 and the melting point was 43.5 °C.

As to `O=C(O)/C=C/C=C/C(=O)O`, the melting point was 301 °C. Still for that read-out and setting: as for `O=C(O)c1cc(F)cc(F)c1`, the figure is 122 °C; as for `CC(=O)Oc1ccccc1C(=O)OC(=O)c1ccccc1OC(C)=O`, 83 °C. As for `N#Cc1c(Cl)cccc1Cl`, the boiling point is 270 °C, the log10 Koc (L/kg) worked out at 2.5, the log10 vapour pressure (mmHg) is -3.18 and the melting point stood at 144 °C. Turning to `CC(C)C(C(=O)OC(C#N)c1cccc(Oc2ccc(Br)cc2)c1)c1ccc(OC(F)F)cc1` (stereo not drawn), the log10 vapour pressure (mmHg) was -8.92. In turn, `C#CC(=O)OC` yielded a boiling point of 104 °C. Regarding `O=C(O)C1C(C(=O)O)C2(Cl)C(Cl)=C(Cl)C1(Cl)C2(Cl)Cl` (stereo not drawn), the log10 Koc (L/kg) is 2.79, the melting point was found to be 209 °C and the ready biodegradability entry is given as “not readily biodegradable”. `C/C(Cl)=C/C(=O)O` returned a boiling point of 195 °C and a melting point of 61 °C. On to `CCCCCCCCCCCCCCC(=O)O`, for which the boiling point was found to be 339 °C, the log10 vapour pressure (mmHg) was -6.36 and the melting point is 52.3 °C.

In turn, `O=C(CC(c1ccccc1)c1ccccc1)c1ccccc1` gave a melting point of 96 °C. Turning to `O=C(O)CC(CC(=O)O)C(=O)O`, the melting point was found to be 166 °C.

With `CC1CCC(O)CC1` (stereo not drawn), the boiling point amounted to 172 °C. `CNC(=O)COC(=O)c1ccccc1`: the melting point came out at 112 °C. With `O=C(OCC(COC(=O)c1cccnc1)(COC(=O)c1cccnc1)COC(=O)c1cccnc1)c1cccnc1`, the melting point turned out to be 162 °C. Consider `CCCCCCCCCCCCC1=C(OC(C)=O)C(=O)c2ccccc2C1=O`, for which the melting point came out at 59.6 °C. `CCOCCC#N` registered a boiling point of 154 °C. Turning to `CC(=O)NCCCCCC(=O)O`, the melting point is 104 °C.

On to `OCc1ccc2c(c1)OCO2`, for which the melting point is 58 °C. With `Cc1csc(C)c1C`, the boiling point was 162 °C and the melting point is -26.2 °C. `O=[N+]([O-])c1ccc(F)cc1F`: the boiling point was found to be 207 °C and the melting point was determined as 9.8 °C. As to `CCCCCCCCOC(=O)CCCCCC`, the boiling point is 290 °C and the melting point is -22.5 °C. The compound `CC(C)CCCC(C)CCO` (stereo not drawn) showed a boiling point of 212 °C. On the same count and under the same terms, under `CCOC(CO)OCC` stands 167 °C. Compound `CC1=NCCO1` came in with a boiling point of 111 °C.

Regarding `FC(F)(F)C(F)(F)Br`, the boiling point is -21 °C. `C[Si](Cl)(Cl)CCl`: the boiling point worked out at 122 °C. The compound `CN(C(=O)Cl)c1ccccc1` returned a boiling point of 280 °C and a melting point of 88.5 °C. The compound `CCCc1ssc(=S)c1C` came in with a melting point of 49 °C. Regarding `BrCC(Br)c1ccccc1` (stereo not drawn), the log10 vapour pressure (mmHg) is -1.97 and the melting point was 75 °C.

For `NC12CC3CC(CC(C3)C1)C2`, the melting point came to 180 °C. `Cc1cccc(NC=O)c1` showed a boiling point of 290 °C. Regarding `NC(=O)Nc1ccc(F)cc1`, the log10 Koc (L/kg) was 1.52. Take `Clc1cc2cccc(Cl)c2cc1Cl`: the log10 Koa was 7.5. As to `Clc1ccccc1-c1ccccc1`, the boiling point came to 274 °C, the log10 Henry constant (atm·m³/mol) is -3.13, the log10 Koc (L/kg) was 3.47 and the log10 vapour pressure (mmHg) is -2.86. The same compound came in with a melting point of 34 °C. As for `CCNc1nc(NCC)nc(SC)n1`, the log10 Koc (L/kg) was 2.3. With `O=C(O)c1ccc(O)c(Cl)c1`, the melting point was found to be 171 °C and the ready biodegradability entry was “not readily biodegradable”. The compound `Oc1cccc(-c2ccccc2)c1` returned a melting point of 78 °C.

Turning to `CC(C)=CCC(C)C`, the boiling point is 112 °C and the log10 vapour pressure (mmHg) was determined as 1.4.

As to `C=CC(=O)OCCOCC`, the boiling point stood at 174 °C and the melting point is -47 °C.

In the case of `CC(C)O`, the boiling point turned out to be 82.3 °C, the log10 Henry constant (atm·m³/mol) was -5.09, the log10 vapour pressure (mmHg) was found to be 1.66 and the melting point is -89.5 °C. For the same compound, the ready biodegradability result is “readily biodegradable”. Compound `CCC(=O)c1c(O)cc(O)cc1O` registered a melting point of 176 °C. Take `CCCCCCCCO`: the boiling point stood at 195 °C, the log10 Henry constant (atm·m³/mol) was -4.61, the log10 Koa turned out to be 6.03 and the log10 Koc (L/kg) was 1.56. Further, the log10 vapour pressure (mmHg) was -1.1, the melting point was -15.5 °C and the ready biodegradability entry is given as “readily biodegradable”. In turn, `OCC(F)(F)C(F)(F)C(F)(F)C(F)(F)C(F)(F)C(F)(F)C(F)(F)F` came in with a boiling point of 161 °C. With `OCC#CCO`, the boiling point was determined as 238 °C, the log10 vapour pressure (mmHg) was -3.25 and the melting point is 50 °C.

On to `COc1nc2c(c(=O)n(C)c(=O)n2C)n1C`, for which the melting point amounted to 176 °C. For `CCCI`, the boiling point was determined as 103 °C, the log10 vapour pressure (mmHg) came out at 1.63 and the melting point was -101 °C. `COc1ccc(C=CC(=O)c2ccc(OC)cc2OC)cc1` yielded a melting point of 97 °C.

The data set is the same for the next values; noted with them: fish.
In the case of `CNC(=O)Oc1ccccc1C(C)C`, the log10 BCF turned out to be 0.95 and the log10 biotransformation half-life (days) was -1.25. For `O=C(O)C1C(C(=O)O)C2(Cl)C(Cl)=C(Cl)C1(Cl)C2(Cl)Cl` (stereo not drawn), the log10 BCF came out at 0.32.

Compound `O=[N+]([O-])c1cccc(S(=O)(=O)[O][Na])c1` showed a log10 BCF of 0.7.
